Experimental data reported in paper PMC10657444, “Design and evaluation of tadpole-like conformational antimicrobial peptides” (Communications Biology, 2023).
“And” between values parts separate entries of the source, which are not always exact repeats. Equal values may be shown once. Residues, ends and D or L forms follow the SMILES beside them.

How the values were obtained:
sheep red blood cells = test: Hemolysis assay
Procedure: To evaluate the hemolysis effects of peptides, red blood hemolysis was performed as described with minimum modifications. Sterile defibrated sheep blood was purchased from Guangzhou Hongquan Biotechnology Co., LTD. Blood cells were adjusted to 2 × 10^9 cells/mL in phosphate-buffered saline (PBS, pH 7.4). In total, 98 μL sheep red blood cell suspension was incubated with 2 μL of peptides at different concentrations ranging from 3.13 to 100 µM. After incubation for 1 h at 37 °C, the cells were centrifuged and the absorbance of the supernatant was measured at 450 nm. The value for “zero hemolysis” was determined using sterile PBS, while 100% hemolysis was established using 1.5% (v/v) Triton X-100. Hemolysis of testing sample was calculated as the percentage of Triton X-100-induced hemolysis.

[1] = system: K. pneumoniae ATCC 700603; test: Time-kill assay; assay type: cell-based, Klebsiella pneumoniae
Procedure: Time-kill assays were done in tubes (in 1.5 mL of LB) and antibiotics at the 1 ×, 2 ×, 4 × and 8 × MIC. Tubes were inoculated (5 × 10^6 CFU/mL) with MRSA USA 300 and K. pneumoniae ATCC 700603 and incubated at 37 °C under shaking. Serial dilutions of the cultures were plated at each desired time point (0, 1, 3, 6, and 24 h), using a multichannel pipette as follows: in line 1 of a 96-well plate, 100 µL of bacterial suspension was added, while 90 µL of 0.9% sterile saline per well was added to the other lines. At selected time points, 100 µL of bacterial suspension was transferred from the time-kill assay plate to the first line. The wells were further diluted 1 in 10 (0.9% saline) for the appropriate number of dilutions and 10 μL of each dilution was spotted in duplicate onto MH agar plates, then incubated overnight at 37°C. The colonies in each spot were counted and used to calculate the number of viable CFU/mL remaining in the original culture by considering the dilution factors.

[2] = system: K. pneumoniae ATCC 700603; test: Membrane permeability, SYTOX Green; assay type: cell-based, Klebsiella pneumoniae
Procedure: Fluorescent probe SYTOX^TM Green (Invitrogen/ Life Technologies, S7020) was used to analyze the effect of HT2 and RI-HT2 on membrane permeability of MRSA USA 300 and K. pneumoniae ATCC 700603 as described elsewhere. SYTOX^TM Green is a DNA binding dye that is fluorescent when bound to nucleic acids and only enters cells with compromised plasma membranes. MRSA USA 300 and K. pneumoniae ATCC 700603 were cultured in LB broth to mid log phase at 37 °C and washed with PBS and resuspended (OD595 ≈ 0.1) in the same buffer. SYTOX^TM Green was added into the cell suspension with a final concentration of 5 μM and being kept in dark for 20 min. 98 µL pre-treated cell suspension was transferred into wells of 96-well glass black plates. Then, 2 µL of compound or DMSO were added to initiate the reaction. The final concentrations of HT2 and RI-HT2 were 1 ×, 2 ×, 4 × and 8 × MIC. Fluorescence strength was measured with excitation/emission wavelength of 485/528 nm every 5 min for 60 min.

[3] = system: K. pneumoniae ATCC 700603; test: Scanning electron microscopy; assay type: cell-based, Klebsiella pneumoniae; conditions: 2 × MIC, 60 min
Procedure: Mid-log phase bacteria (MRSA USA 300 and K. pneumoniae ATCC 700603) grown in LB broth were adjusted to a density of 5 × 10^6 CFU/mL. […] All samples were centrifuged at 8000 rpm for 5 min, washed and then resuspended in PBS. Bacterial cells were fixed with 2.5% glutaraldehyde, and then incubated at 37°C on a glass slide for 20 min. Samples were dehydrated by passing through gradient ethanol (10%, 30%, 50%, 70%, 90%, and 100%) for 5 min at each concentration. Slides were dried with an automatic critical point drying instrument (Leica EM CPD300), and a small amount of gold was sputtered onto the samples using a sputter coater system to avoid charging in the microscope. Finally, the bacteria were visualized under a field-emission scanning electron microscopy (FESEM) device (Sirion 200).

MRSA USA 300 = test: Transmission electron microscopy; assay type: cell-based, Staphylococcus aureus; conditions: 2 × MIC, 60 min
Procedure: The processing method of the samples for transmission electron microscopy (TEM) was the same as the treatment for SEM. The samples were then prefixed with 2.5% glutaraldehyde at 4°C overnight, post-fixed with osmium tetroxide for 70 min, and washed twice with PBS (pH 7.4). Subsequently, the samples were dehydrated for 10 min in a graded ethanol series (30, 50, 70, 90, and 100%) followed by 10 min in a mixture of absolute ethanol and acetone (1:1, v/v) and 10 min in absolute acetone. The specimens were transferred to a mixture of absolute acetone and epoxy resin (1:1, v/v) for 30 min and then to pure epoxy resin overnight at a constant temperature. Finally, the samples were sectioned using an ultramicrotome, stained with uranyl acetate and lead citrate, and then observed by TEM (Hitachi H-7650, Japan).

CC[C@H](C)[C@H](NC(=O)[C@H](CCCNC(=N)N)NC(=O)[C@H](CCCNC(=N)N)NC(=O)[C@H](CC(C)C)NC(=O)[C@H](Cc1ccccc1)NC(=O)[C@@H](N)CCCNC(=N)N)C(=O)N[C@@H](Cc1ccccc1)C(=O)N[C@@H](Cc1ccccc1)C(=O)N[C@@H](Cc1ccccc1)C(=O)N[C@@H](Cc1ccccc1)C(N)=O [HT2] (H-RFLRRIFFFF-NH2)
OD450, hemolysis (Fig 2b), replicates (sheep red blood cells; 6.25 µM): 0.02117 (2×) and 0.02078 and 0.02133 (2×) and 0.02093 | OD450, hemolysis (Fig 2b), replicates (sheep red blood cells; 12.5 µM): 0.02313 and 0.0233 | HC10 (concentration inducing 10% hemolysis) (sheep red blood cells; red cells of sheep, 1 h): > 100.0 µM | viable count, time-kill ([1]; 2 × MIC, 0 h): 3000000 CFU/mL and 3500000 CFU/mL and 3400000 CFU/mL | viable count, time-kill ([1]; 2 × MIC, 1 h): 275000 CFU/mL and 375000 CFU/mL and 310000 CFU/mL | viable count, time-kill ([1]; 2 × MIC, 3 h): 33000 CFU/mL and 31000 CFU/mL | viable count, time-kill ([1]; 2 × MIC, 6 h): 14000 CFU/mL and 18000 CFU/mL and 16000 CFU/mL | viable count, time-kill ([1]; 2 × MIC, 24 h): 18000 CFU/mL and 24000 CFU/mL and 23000 CFU/mL | viable count, time-kill ([1]; 4 × MIC, 0 h): 3000000 CFU/mL and 3500000 CFU/mL and 3400000 CFU/mL | viable count, time-kill ([1]; 4 × MIC, 1 h): 70000 CFU/mL and 65000 CFU/mL and 66000 CFU/mL | viable count, time-kill ([1]; 4 × MIC, 6 h): 8000 CFU/mL and 7400 CFU/mL and 9000 CFU/mL | viable count, time-kill ([1]; 4 × MIC, 24 h): 16000 CFU/mL and 21000 CFU/mL and 19000 CFU/mL | viable count, time-kill ([1]; 8 × MIC, 0 h): 3000000 CFU/mL and 3500000 CFU/mL and 3400000 CFU/mL | viable count, time-kill ([1]; 8 × MIC, 1 h): 520000 CFU/mL and 540000 CFU/mL and 550000 CFU/mL | viable count, time-kill ([1]; 8 × MIC, 3 h): 500 CFU/mL and 700 CFU/mL | viable count, time-kill ([1]; 8 × MIC, 24 h): 100 CFU/mL and 200 CFU/mL | killing outcome (in words) ([1]; 8 × MIC, after 24 h): cannot completely be killed | viable count, time-kill ([1]; MIC, 0 h): 3000000 CFU/mL and 3500000 CFU/mL and 3400000 CFU/mL | viable count, time-kill ([1]; MIC, 1 h): 400000 CFU/mL and 330000 CFU/mL and 410000 CFU/mL | viable count, time-kill ([1]; MIC, 6 h): 430000 CFU/mL and 570000 CFU/mL and 480000 CFU/mL | viable count, time-kill ([1]; MIC, 24 h): 51000000 CFU/mL and 58000000 CFU/mL and 54000000 CFU/mL | Fluorescence intensity ([2]; 2 × MIC, time 0 min): 501695 and 509033 and 502622 | Fluorescence intensity ([2]; 2 × MIC, time 5 min): 1090890 and 1043729 and 1064139 | Fluorescence intensity ([2]; 2 × MIC, time 10 min): 1729072 and 1765938 and 1671967 | Fluorescence intensity ([2]; 2 × MIC, time 15 min): 2450918 and 2522662 and 2381578 | Fluorescence intensity ([2]; 2 × MIC, time 20 min): 3050480 and 3158194 and 2985766 | Fluorescence intensity ([2]; 2 × MIC, time 25 min): 3669210 and 3714426 and 3535044 | Fluorescence intensity ([2]; 2 × MIC, time 30 min): 4083450 and 4189312 and 4054249 | Fluorescence intensity ([2]; 2 × MIC, time 35 min): 4565952 and 4682018 and 4543315 | Fluorescence intensity ([2]; 4 × MIC, time 0 min): 525974 and 544262 and 540364 | Fluorescence intensity ([2]; 4 × MIC, time 5 min): 1702985 and 1566300 and 1596913 | Fluorescence intensity ([2]; 4 × MIC, time 10 min): 2584709 and 2629728 and 2589896 | Fluorescence intensity ([2]; 4 × MIC, time 15 min): 4158305 and 4176033 and 4135763 | Fluorescence intensity ([2]; 4 × MIC, time 20 min): 5327990 and 5380046 and 5341458 | Fluorescence intensity ([2]; 4 × MIC, time 25 min): 6471332 and 6483549 and 6409400 | Fluorescence intensity ([2]; 4 × MIC, time 30 min): 7570513 and 7493394 and 7434627 | Fluorescence intensity ([2]; 4 × MIC, time 35 min): 8228675 and 8284610 and 8343092 | Fluorescence intensity ([2]; 8 × MIC, time 0 min): 870465 and 760375 and 885415 | Fluorescence intensity ([2]; 8 × MIC, time 5 min): 1479590 and 1252173 and 1198504 | Fluorescence intensity ([2]; 8 × MIC, time 10 min): 2304082 and 2051490 and 2261553 | Fluorescence intensity ([2]; 8 × MIC, time 15 min): 3691170 and 2983585 and 3730581 | Fluorescence intensity ([2]; 8 × MIC, time 20 min): 5088194 and 4586923 and 5243088 | Fluorescence intensity ([2]; 8 × MIC, time 25 min): 6892750 and 6059584 and 6984752 | Fluorescence intensity ([2]; 8 × MIC, time 30 min): 8250478 and 7253838 and 8382724 | Fluorescence intensity ([2]; 8 × MIC, time 35 min): 8870007 and 7712378 and 8970308 | Fluorescence intensity ([2]; 8 × MIC, time 40 min): 10334018 | Fluorescence intensity ([2]; MIC, time 0 min): 550162 and 549500 and 565924 | Fluorescence intensity ([2]; MIC, time 5 min): 788019 and 747687 and 700922 | Fluorescence intensity ([2]; MIC, time 10 min): 953632 and 962086 and 882779 | Fluorescence intensity ([2]; MIC, time 15 min): 1211256 and 1113347 and 1136029 | Fluorescence intensity ([2]; MIC, time 20 min): 1429978 and 1306982 and 1354221 | Fluorescence intensity ([2]; MIC, time 25 min): 1431312 and 1479927 and 1452172 | Fluorescence intensity ([2]; MIC, time 30 min): 1813062 and 1687978 and 1751083 | Fluorescence intensity ([2]; MIC, time 35 min): 1966664 and 1821317 and 1900107 | Fluorescence intensity ([2]; MIC, time 40 min): 2166119 and 2083647 and 2111537 | time to highest SYTOX Green fluorescence intensity ([2]; dose-dependent): ≤ 40 min | cell surface morphology by SEM (in words) [3]: rough, shrunken, wrinkled and partially damaged | membrane and intracellular structure by TEM (in words) (MRSA USA 300): cytoplasmic membranes became blurred and separated
